Laboratory results taken from EP4635958A1, “PYRIMIDINE-CONTAINING POLYCYCLIC DERIVATIVE INHIBITOR, AND PREPARATION METHOD THEREFOR AND USE THEREOF” (Shanghai Hansoh Biomedical Co., Ltd., priority 2022, dated 2024).
Like-named read-outs stand apart in the source and are kept apart here.

How the values were obtained:
GP2D = assay: Inhibition of proliferation of KRAS G12D mutant tumor cell line GP2D (CellTiter-Glo); details: read-out: GP2D IC50
Experimental: Experimental method: When SNU-1, HPAF-II, Panc0403, AsPC-1 or GP2D cells were cultured to the appropriate confluence, and the SNU-1, HPAF-II, Panc0403, AsPC-1 or GP2D cells were collected. The cells were adjusted to the appropriate cell density using complete culture medium, the cell suspension was plated onto a 96-well plate at 90 µL per well, and the plate was placed in the incubator at 37°C and 5% CO2 for adherent culture overnight. Solutions of the compound with different concentrations were formulated using DMSO and culture medium. A vehicle control was set up. […] Then, CellTiter-Glo solution was added, and the obtained mixture was shaken and mixed evenly, incubated in the dark for 10 min, and read with a BioTek Synergy H1 microplate reader. […] Experimental data processing method: The luminescence signal value was used to calculate the inhibition rate. Graphpad Prism software was used to fit the concentration and inhibition rate to a nonlinear regression curve, so as to obtain the IC50 value.

AsPC-1 = assay: Inhibition of proliferation of KRAS G12D mutant tumor cell line AsPC-1 (CellTiter-Glo); type: cell-based
Experimental: 1. Experimental objective: The inhibition activity of the example compounds on the proliferation of 5 KRAS G12D mutant cell lines SNU-1, HPAF-II, Panc0403, AsPC-1 and GP2D was determined. 2. Experimental instruments: • 2.1 Instruments: Microplate reader (BioTek Synergy H1); Pipette (Eppendorf & Rainin). • 2.2 Reagents: HPAF-II, PANC0403, AsPC-1 and GP2D were purchased from COBIOER BIOSCIENCES CO., LTD; SNU-1 was purchased from the cell bank of Chinese Academy of Sciences, Cell Titer-Glo was purchased from Promega, with a catalog number of G7573; RPMI 1640 was purchased from Gibco, with a catalog number of 22400089; DMEM was purchased from Gibco, with a catalog number of 11995065; FBS was purchased from Gibco, with a catalog number of 10091148; PBS was purchased from Gibco, with a catalog number of 10010023; trypsin was purchased from Gibco, with a catalog number of 25200056; cell culture plates were purchased from Corning Company, with a catalog number of 3610. 3. Experimental method: When SNU-1, HPAF-II, Panc0403, AsPC-1 or GP2D cells were cultured to the appropriate confluence, and the SNU-1, HPAF-II, Panc0403, AsPC-1 or GP2D cells were collected. The cells were adjusted to the appropriate cell density using complete culture medium, the cell suspension was plated onto a 96-well plate at 90 µL per well, and the plate was placed in the incubator at 37°C and 5% CO2 for adherent culture overnight. Solutions of the compound with different concentrations were formulated using DMSO and culture medium. A vehicle control was set up. The solutions of the compound were added to the 96-well plate at 10 µL per well, and the plate was placed in the incubator at 37°C and 5% CO2 for further culture for about 72 h. Then, CellTiter-Glo solution was added, and the obtained mixture was shaken and mixed evenly, incubated in the dark for 10 min, and read with a BioTek Synergy H1 microplate reader. 4. Experimental data processing method: The luminescence signal value was used to calculate the inhibition rate. Graphpad Prism software was used to fit the concentration and inhibition rate to a nonlinear regression curve, so as to obtain the IC50 value. 5. Experimental results: Table 2: Determination of the inhibition activity of the compounds on the proliferation of KRAS G12D mutant tumor cell line GP2D

[1] = Pharmacokinetic determination in mice (IV and PO, plasma, LCMS/MS); type: in vivo, Balb/c mice
Source text: • 1. Study objective: Balb/c mice were used as test animals to study the pharmacokinetic behavior of the compounds in mice (plasma) after oral administration. • 2. Test scheme • 2.1 Test drugs: The example compounds of the present invention, made in house; • 2.2 Test animals: Balb/c mice, male, purchased from Shanghai Jiesijie Experimental Animal Co., Ltd., animal production license number (SCXK (Shanghai) 2013-0006 N0.311620400001794). • 2.3 Drug formulation: Formulation of a drug for oral administration: 10% Captisol in 50 mM citrate buffer pH 5.0.
(§1) Formulation of 50 mM citric acid: 4.8 g of citric acid was weighed into a 1000 ml glass bottle, ultrapure water was added to 300 ml, and the mixture was magnetically stirred until completely dissolved, additional ultrapure water was then added to 500 ml to formulate 50 mM citric acid.
(§2) Formulation of a solution containing 50 mM citric acid (10% Captisol, PH = 5): 50 g of Captisol powder was weighed and added to a 1000 ml glass bottle, 300 ml of 50 mM citric acid was added, and the mixture was magnetically stirred until completely dissolved, then additional citric acid was added to 500 ml, and the PH was adjusted to 5 using 10 M NaOH.
The example compounds were weighed and added to a 4 mL glass bottle separately, 2.4 mL of the solution was added and the mixture was subjected to ultrasound treatment for 10 min to obtain a colorless clear solution with a concentration of 3 mg/mL.
(§3) Formulation of a drug for intravenous administration: 5%DMSO+10%Solutol HS15+85%PBS.
(§4) The example compounds were weighed, and 5% DMSO was added according to the total administration volume; the mixture was vortexed and sonicated for 2 min to ensure complete dissolution; then, 10% Solutol HS15 was added, and the mixture was vortexed and sonicated for 2 min to achieve complete dissolution; finally, 85% PBS was added, and the mixture was vortexed and sonicated for 5 min; the obtained mixture was filtered through a 0.22 um membrane to obtain a colorless, transparent, and clear solution with a concentration of 0.2 mg/mL.
3 Balb/c mice, male; After overnight fasting, the animals were administered orally (PO) at a dose of 30 mg/kg with an administration volume of 10 mL/kg.
3 Balb/C mice, male; After overnight fasting, the animals were administered intravenously (IV) at a dose of 1 mg/kg with an administration volume of 5 mL/kg.
0.04 mL of blood was collected from the orbit before administration and at 0.25 h, 0.5 h, 1 h, 2 h, 4 h, 6 h, 8 h, and 24 h after administration and placed in an EDTA-2K test tube, and the test tube was centrifuged at 6000 rpm for 6 min at 4°C to separate the plasma, which was stored at -20°C; the animals were fed 4 h after administration.
The final determination results obtained by applying the LCMS/MS method are shown in the table below: Table 6: Pharmacokinetic parameters of the compounds administered intravenously in mice

[2] = Pharmacokinetic determination in rats (IV and PO, plasma, LCMS/MS); type: in vivo, SD rats; details: male SD rats; for AUC(0-inf): read-out: AUCo-∞; for half-life: read-out: T1/2 (converted)
Experimental: SD rats were used as test animals to study the pharmacokinetic behavior of the example compounds in rats (plasma) after oral administration.
The example compounds of the present invention, made in house.
3 SD rats per group, male. Shanghai Jiesijie Experimental Animal Co., Ltd., animal production license number (SCXK (Shanghai) 2013-0006 N0.311620400001794).
Formulation of a drug for oral administration: 10% Captisol in 50 mM citrate buffer pH 5.0.
as §1, §2
The example compounds were weighed and dissolved in the solution and the mixture was shaken well and subjected to ultrasound treatment for 15 min to obtain a colorless clear solution with a concentration of 3 mg/mL.
as §3, §4
3 SD rats per group, male; After overnight fasting, the animals were administered orally (PO) at a dose of 30 mg/kg with an administration volume of 10 mL/kg.
3 SD rats per group, male; After overnight fasting, the animals were administered intravenously (IV) at a dose of 1 mg/kg with an administration volume of 5 mL/kg.
0.2 mL of blood was collected from the jugular vein before administration and at 0.25 h, 0.5 h, 1.0 h, 2.0 h, 4.0 h, 6.0 h, 8.0 h, and 24.0 h after administration and placed in an EDTA-2K test tube, and the test tube was centrifuged at 6000 rpm for 6 min at 4°C to separate the plasma, which was stored at -20°C. the animals were fed 4 h after administration.
The final determination results obtained by applying the LCMS/MS method are shown in the table below: Table 8: Pharmacokinetic parameters of the compounds administered intravenously in rats

[3] = Plasma stability test, rat plasma; details: Rat plasma, 37°C
Source text: The purpose of this experiment was to detect the stability of the example compounds in plasma of mouse, rat, dog and human.
Liquid chromatography-mass spectrometer, centrifuge, vortexer, pipette, continuous dispenser, 96-well plate, 50% methanol aqueous solution, acetonitrile solution containing internal standard, blank matrix (plasma of rat, dog, or human), Propantheline (propantheline bromide), Mevinolin (lovastatin), and test compound.
After whole blood was collected from animals or humans, it was placed in a test tube containing an anticoagulant and centrifuged at 3500 rpm for 10 min to collect the upper pale yellow plasma.
The compound was weighed and the stock solution was formulated with DMSO and the working solution was formulated with 100 mM phosphate buffer.
2.36 mg of propantheline bromide was weighed and diluted with 1 mL of DMSO into a 10 mM stock solution; 10 µL of 10 mM stock solution was pipetted into 1 mL of 100 mM phosphate buffer to achieve a final concentration of 100 µM.
4.05 mg of lovastatin was weighed and diluted with 1 mL of DMSO into a 10 mM stock solution; 10 µL of 10 mM stock solution was pipetted into 1 mL of 100 mM phosphate buffer to achieve a final concentration of 100 µM.
• 1) In a 96-well plate, 285 µL of plasma and 15 µL of 10 µM compound (test compound) were added in sequence and incubated at 37°C. • 2) 40 µL was taken at 0, 15, 30, 60, 90, and 120 min (the sampling point can be fine-tuned) and 160 µL of acetonitrile stop solution containing internal standard was add. • 3) After centrifugation (3500 rpm, 10 min), 50 µL of supernatant was taken, and 50 µL of DDH2O added for dilution and then the obtained mixture was injected into LC-MS/MS.
• Instruments: Shimadzu LC-20 AD • Chromatographic column: Phenomenex Gemiu ® C18 (50*4.6 mm, 5 µm particle size); • mobile phase: A: Acetonitrile, B: 0.1% formic acid solution 0-8 min: 5% A→95% A, 2.0-2.1 min: 90%A→5% A; Flow rate: 0.8 mL/min; Run time: 5.0 min; Injection volume: 5 µL.
• Instrument: API4000 liquid chromatography-mass spectrometer, AB Company, USA; • the ion source was electrospray ionization source (ESI); • drying gas (N2) temperature was 500°C; • electrospray voltage was 5500V; • the detection method was positive ion detection; • the scanning method was selected reaction monitoring (MRM); • the scanning time was 0.1s.

[4] = proliferation, about 72 h, CellTiter-Glo
[5] = PO, 30 mg/kg, male Balb/c mice, overnight fasting, plasma
[6] = IV, 1 mg/kg, overnight fasting, plasma
[7] = PO, 30 mg/kg, overnight fasting, plasma
[8] = Balb/c mice, intravenously (IV), 1 mg/kg, plasma
[9] = Homo sapiens, ASPC1, about 72 h
[10] = rat, in vivo, PO, 30 mg/kg, overnight fasting, plasma
[11] = rat, in vivo, PO, 30 mg/kg, overnight fasting, plasma, read-out: Cmax
[12] = rat, in vivo, PO, 30 mg/kg, overnight fasting, plasma, read-out: Tmax

With “4-((5S,5aS,6R,9S)-12-((1-((((R)-4-(difluoromethylene)-2-methylpiperidin-1-yl)methyl)cyclopropyl)methoxy)-1-fluoro-5-methyl-5a,6,7,8,9,10-hexahydro-5H-4-oxa-3,10a,11,13,14-pentaaza-6,9-methylnaphtho[1,8-ab]hept-2-yl)-5-ethynyl-6-fluoronaphthalen-2-ol [Example 89]” the IC50 (GP2D; [4]) was 0.9 nM, the IC50 (AsPC-1; about 72 h) was 8.9 nM and the “AUC0-∞” value [1, 5] was 1513 ng·h/mL. The Cmax [1, 5] was 259 ng/mL, the T1/2 [1, 5] was 7.7 h and the Tmax [1, 5] was 1.0 h.

For “4-((5S,5aS,6R,9S)-12-((1-((((R)-4-(difluoromethylene)-2-methylpiperidin-1-yl)methyl)cyclopropyl)methoxy)-1-fluoro-5-methyl-5a,6,7,8,9,10-hexahydro-5H-4-oxa-3,10a,11,13,14-pentaaza-6,9-methylnaphtho[1,8-ab]hept-2-yl)-5-ethynyl-6-fluoronaphthalen-2-ol [Example 91]”, the “AUCo-∞” value [2, 6] was 660 ng·h/mL, the C0 [2, 6] was 995 ng/mL and the CL [2, 6] was 25.3 mL/min/kg. For the same compound, the T1/2 [2, 6] was 11.9 h, the F ([2]; PO 30 mg/kg vs IV 1 mg/kg) was 9.7% and the “AUCo-∞” value [2, 7] was 1925 ng·h/mL. It also gave a Cmax [2, 7] of 251 ng/mL, a T1/2 [2, 7] of 4.8 h and a Tmax [2, 7] of 6.0 h. For the same compound, the IC50 (GP2D; [4]) was 0.28 nM, the IC50 (AsPC-1; about 72 h) was 5.8 nM and the “AUCo-∞” value [1, 8] was 366 ng·h/mL. It also gave a C0 [1, 8] of 662 ng/mL, a CL [1, 8] of 45.6 mL/min/kg and a T1/2 [1, 8] of 9.3 h. The F ([1]; PO 30 mg/kg vs IV 1 mg/kg, male Balb/c mice) was 16.6%, the “AUC0-∞” value [1, 5] was 1818 ng·h/mL and the Cmax [1, 5] was 295 ng/mL. For the same compound, the T1/2 [1, 5] was 5.7 h and the Tmax [1, 5] was 2.0 h.

For C#Cc1c(F)ccc2cc(O)cc(-c3nc4c5c(nc(OCC6(CN7CCC(=C(F)F)C[C@@H]7C)CC6)nc5c3F)N3C[C@H]5CC[C@H](N5)[C@H]3[C@H](C)O4)c12 [Example 90], the IC50 (GP2D; Homo sapiens, GP2d, 72 h) was 0.51 nM and the IC50 (AsPC-1; [9]) was 8.8 nM.

Work on C#Cc1c(F)ccc2cc(O)cc(-c3nc4c5c(nc(OCC6(CN7CCC(=C(F)F)C7)CC6)nc5c3F)N3C[C@H]5CC[C@H](N5)[C@H]3[C@H](C)O4)c12 [Example 130] yielded an IC50 (GP2D; Homo sapiens, GP2d, 72 h) of 0.33 nM and an IC50 (AsPC-1; [9]) of 4.2 nM.

C#Cc1c(F)ccc2cc(O)cc(-c3nc4c5c(nc(OCC6(CN7CCCC(=C(F)F)CC7)CC6)nc5c3F)N3C[C@H]5CC[C@H](N5)[C@H]3[C@H](C)O4)c12 [Example 132] showed an AUC(0-inf) [2, 10] of 2350 ng·h/mL, a Cmax [2, 11] of 246 ng/mL and a Tmax [2, 12] of 2 h. The IC50 (GP2D; Homo sapiens, GP2d, 72 h) was 0.24 nM and the IC50 (AsPC-1; [9]) was 4.9 nM.

Compound [2H]C([2H])([2H])C1Oc2nc(-c3cc(O)cc4ccc(F)c(C#C)c34)c(F)c3nc(OCC4(CN5CCC(=CF)CC5C)CC4)nc(c23)N2CC3CCC(N3)C12 (stereo not drawn) [Example 286] has an AUC(0-inf) [2, 10] of 600 ng·h/mL, a Cmax [2, 11] of 50 ng/mL and a half-life [2, 10] of 10.8 h. The Tmax [2, 12] was 2 h, the IC50 (GP2D; Homo sapiens, GP2d, 72 h) was 0.32 nM and the IC50 (AsPC-1; [9]) was 7.8 nM.

[2H]C([2H])(Oc1nc2c3c(nc(-c4cc(O)cc5ccc(F)c(C#C)c45)c(F)c3n1)O[C@@H](C)[C@@H]1[C@@H]3CC[C@H](CN21)N3)C1(C([2H])([2H])N2CCC(=C(F)F)CC2)CC1 [Example 289] showed an AUC(0-inf) [2, 10] of 2110 ng·h/mL, a Cmax [2, 11] of 280 ng/mL and a half-life [2, 10] of 6.3 h. For the same compound, the Tmax [2, 12] was 4 h, the IC50 (GP2D; Homo sapiens, GP2d, 72 h) was 0.28 nM and the IC50 (AsPC-1; [9]) was 5.7 nM.

In the case of [2H]C([2H])(Oc1nc2c3c(nc(-c4cc(O)cc5ccc(F)c(C#C)c45)c(F)c3n1)O[C@@H](C)[C@@H]1[C@@H]3CC[C@H](CN21)N3)C1(C([2H])([2H])N2CCC(=C(F)F)C[C@H]2C)CC1 [Example 290], the IC50 (GP2D; Homo sapiens, GP2d, 72 h) is reported as 0.3 nM and the IC50 (AsPC-1; [9]) is reported as 6.2 nM.

With CC[C@H](C)C(=O)O[C@H]1C[C@@H](C)C=C2C=C[C@H](C)[C@H](CC[C@@H]3C[C@@H](O)CC(=O)O3)[C@H]21 [Lovastatin, lovastatin, reference compound] the “Remaining rate (%) 0 min” value ([3]; 0 min) was 100.00%, the “Remaining rate (%) 15 min” value ([3]; 15 min) was 21.15% and the “Remaining rate (%) 30 min” value ([3]; 30 min) was 1.77%. The “Remaining rate (%) 60 min” value ([3]; 60 min) was 0.36% and the “Remaining rate (%) 120 min” value ([3]; 120 min) was 0.30%.
